Structures are written as SMILES.

The test system of assay [1] is SEB-exhausted human PBMCs. Put plainly: cells. The assay is classed as cell-based.
In assay [2] the test system is SEB-restimulated PBMCs. Put plainly: IFNγ production in SEB-restimulated PBMCs (Example 1). The assay is classed as cell-based, human. As to conditions: FIG. 5 (Inhibitor 3 at 10 μM). The source says:
The effect of USP9X inhibition on PBMCs that have been re-stimulated with SEB was also investigated. […] This is consistent with the notion that the SEB-restimulated T cells were in a state of exhaustion or rendered tolerant to SEB.

The test system of assay [3] is CD3/CD28 Activated T Cells. In words: anti-CD3/CD28 T cell activation assay (Example 2). The assay is classed as cell-based. Conditions: FIG. 6. How it is done: (§1) Given the reported role of ITCH and Cbl-b in T cell tolerance and as a negative regulator of T-cell receptor (TCR)/[…] 28 (CD28) signaling, the effects of USP9X inhibition were evaluated in a CD3/CD28 activation assay and in a mixed lymphocyte reaction (MLR) assay.

Assay [4] relates to mixed lymphocyte reaction. Put plainly: mixed lymphocyte reaction (MLR) assay (Example 2). Format: cell-based. As to conditions: FIG. 7. As for the experimental part: as §1
Assay [5] deals with A375 melanoma cells. In words: Allogeneic PBMC-mediated cytotoxicity of A375 melanoma cells, caspase 3/7 (Example 4). Format: cell-based, human. Conditions: with SEB-stimulated PBMCs, FIG. 9A/9B. How it is done: A375 cells incubated alone, in the absence of SEB-stimulated PMBCs, with either compound had no significant effect on cellular apoptosis.
Assay [6] deals with Human total T cells (CD3+). In words: Human T cell activation with CD3/CD28 activator, IFNγ ELISA (Example 6). Conditions: 4 days, two donors, FIGS. 11-12. Format: cell-based. As for the experimental part: Human total T cells (CD3+) were isolated using EasySep™ immunomagnetic beads (Stemcell Technologies) from healthy human PBMCs (Hemacare). Cells were stained with Cell Trace Violet proliferation dye (Invitrogen), and treated with agent or DMSO. Cells were also stimulated with a CD3/CD28 activator (Stemcell Technologies). After 4 days of incubation, cells and supernatant were collected; cells were washed with staining buffer (PBS with 2% FBS) twice and centrifuged (350 g for 5 min). Cells were stained with LIVE/DEAD stain (Invitrogen), FITC-CD4 (BD Pharmingen) and CD8 (BD Pharmingen) in 100 μL volume for 30 mins at 4° C. Cells were washed twice as described above, resuspended in 100 μL staining buffer and analyzed using a BD Canto II (BD Biosciences). Data was analyzed using FlowJo V10 (FlowJo LLC). Secreted IFNγ was measured by ELISA (Dakewe Biotech Co., Ltd). All data were analyzed by Graphpad Prism 6.0 (GraphPad Software).

The test system of assay [7] is female BALB/c mice. Put plainly: SEB-induced peripheral tolerance in mice, spleen and splenocyte readouts (Example 7). Format: in vivo. How it is done: Peripheral tolerance/inactivation was induced in female BALB/c mice by a single intraperitoneal injection of 30 μg SEB. Mice were treated with a positive control (anti-CTLA4) or various doses of USP9X Inhibitor 3. Spleens and splenocytes were harvested at 24 hr after the last dose. […] No changes in IL-2 and IFNγ levels were detected in the supernatants from SEB-restimulated splenocytes.

Where [8] appears, read: highest dose group, 24 hr after last dose.

Regarding `CNC[C@H](C(=O)N1CC2=C(C1)CN(S(=O)(=O)c1ccc3c(c1)OCCO3)C2)c1cccc(Cl)c1` [USP9X Inhibitor 3, (2R)-2-(3-chlorophenyl)-1-[5-(2,3-dihydro-1,4-Benzodioxine-6-sulfonyl)-1H,2H,3H,4H,5H,6H-pyrrolo[3,4-c]pyrrol-2-yl]-3-(methylamino)propan-1-one], in assay [1], the “IFNγ production compared to DMSO or negative control compound 5” value was “significantly increase IFNγ production”. In addition, the EC50 in assay [1] (Homo sapiens, PBMC, 48 h, read-out: EC50 value for IFNγ secretion) lay within 100 to 1000 nM; in assay [4] (Lymphocyte, read-out: EC50 for IFNγ secretion in the MLR assay), 100 to 1000 nM. Further, in assay [2], the “IFNγ production following SEB-restimulation” value is given as “restored IFNγ production to varying degrees depending on the donor”. Further, the IFNγ production entry in assay [3] was “the most profound effect”; in assay [6], “increased”. Besides, in assay [4], the “IFNγ secretion in the MLR assay” value was “promoted IFNγ secretion”. Besides, in assay [5], the “A375 apoptosis (caspase 3/7 activity)” value is reported as “enhanced A375 apoptosis in a concentration-dependent manner”. The “Spleen protein level of Cbl-b, reduction” value in assay [7] (setting [8]) is recorded as 81%. The “Spleen protein level of ITCH, reduction” value in assay [7] (setting [8]) came to 64%. In addition, the “Spleen protein levels of Cbl-b and ITCH” value in assay [7] (lower doses) is “no notable changes”. Besides, the “IL-2 and IFNγ levels in supernatants from SEB-restimulated splenocytes” value in assay [7] (splenocytes harvested 24 hr after last dose) is “No changes”.
Take `O=S(=O)(c1ccc(-c2ncco2)cc1)N1Cc2cnc(C(O)c3cccc(N4CCNCC4)c3)cc2C1` (stereo not shown) [USP9X Inhibitor 4, [2-[4-(1,3-oxazol-2-yl)benzenesulfonyl]-1H,2H,3H-pyrrolo[3,4-c]pyridin-6-yl][3-(piperazin-1-yl)phenyl] methanol]: the IFNγ production entry in assay [6] is given as “increased”.

These data come from patent publication US20210346356A1, “INHIBITING UBIQUITIN SPECIFIC PEPTIDASE 9X” (FORMA THERAPEUTICS, INC., priority 2018, published 2021).
